Experimental data published in ChEMBL document CHEMBL4390649, “Fine-tuning the neuroprotective and blood-brain barrier permeability profile of multi-target agents designed to prevent progressive mitochondrial dysfunction” (Eur J Med Chem, 2019).
Active and inactive are the calls of the source. The rule behind the calls is not given here.

Tests used:
[1] = Electrochemical behavior of the compound assessed as redox potential corrected toward saturated Ag/AgCl reference electrode by differential pulse voltammetry
[2] = Cytotoxicity against human CMEC/D3 cells assessed as reduction in cell viability at 50 to 100 uM incubated for 4 hrs by MTT assay relative to control; assay type: cell-based; conditions: hcmec/d3, 4 h
[3] = tested on: SH-SY5Y; assay: Neuroprotective activity against TBHP-induced oxidative damage in human SH-SY5Y cells assessed as increase in cell viability at 50 uM pretreated for 24 hrs followed by TBHP stimulation measured after 4 hrs by MTT assay relative to control; assay type: functional
[4] = Apparent permeability across apical to basolateral side in human CMEC/D3 cells at 100 uM incubated by UV-VIS spectroscopic method; assay type: ADME, cell-based; conditions: hcmec/d3, 100 µM, TDE = time-dependent effect
[5] = tested on: SH-SY5Y; assay: Neuroprotective activity against TBHP-induced oxidative damage in human SH-SY5Y cells assessed as increase in cell viability at 10 uM pretreated for 24 hrs followed by TBHP stimulation measured after 4 hrs by MTT assay relative to control; assay type: functional, cell-based
[6] = tested on: SH-SY5Y; assay: Induction of ROS generation in human SH-SY5Y cells at 50 uM incubated for 24 hrs by DCFH-DA probe based fluorescence assay relative to control; assay type: functional
[7] = Antioxidant activity assessed as DPPH radical scavenging activity measured after 45 mins by UV-Visible spectrophotometric based assay; assay type: functional
[8] = tested on: SH-SY5Y; assay: Neuroprotective activity against 6-OHDA-induced toxicity in human SH-SY5Y cells assessed as reduction in cell damage at 10 to 50 uM pretreated for 24 hrs followed by 6-OHDA challenge and measured after 24 hrs by MTT assay relative to control; assay type: functional
[9] = Metal chelating activity assessed as compound-Fe2+ complex formation at 100 uM incubated for 10 mins by ferrozine spectrophotometric assay
[10] = tested on: SH-SY5Y; assay: Neuroprotective activity against H2O2-induced oxidative damage in human SH-SY5Y cells assessed as reduction in cell damage at 10 uM pretreated for 24 hrs followed by H2O2 challenge measured after 30 mins by MTT assay relative to control; assay type: functional
[11] = Cytotoxicity against human HepG2 cells assessed as cell metabolic activity at 10 uM incubated for 48 hrs by resazurin assay relative to control; assay type: ADME, cell-based; conditions: read-out: Activity
[12] = Cytotoxicity against human SH-SY5Y cells assessed as cell metabolic activity at 50 uM incubated for 24 hrs by MTT assay relative to control; assay type: ADME, cell-based; conditions: read-out: Activity
[13] = Electrochemical behavior of the compound assessed as redox potential corrected toward saturated Ag/AgCl reference electrode by cyclic voltammetry
[14] = Apparent permeability across apical to basolateral side in human CMEC/D3 cells at 100 uM incubated up to 180 mins by UV-VIS spectroscopic method; assay type: ADME, cell-based; conditions: hcmec/d3, 3 h
[15] = tested on: SH-SY5Y; assay: Neuroprotective activity against H2O2-induced oxidative damage in human SH-SY5Y cells assessed as reduction in cell damage at 50 uM pretreated for 24 hrs followed by H2O2 challenge measured after 30 mins by MTT assay relative to control; assay type: functional
[16] = Cytotoxicity against human HepG2 cells assessed as cell metabolic activity at 50 uM incubated for 48 hrs by resazurin assay relative to control; assay type: ADME, cell-based; conditions: read-out: Activity
[17] = Antioxidant activity assessed as ABTS radical scavenging activity measured after 15 mins by UV-Visible spectrophotometric based assay; assay type: functional
[18] = Cytotoxicity against human SH-SY5Y cells assessed as cell metabolic activity at 10 uM incubated for 24 hrs by MTT assay relative to control; assay type: ADME, cell-based; conditions: read-out: Activity

| Compound | Activity [1] | Activity [2] | Activity [3] | permeability [4] | Activity [5] | Activity [6] | IC50 [7] | Activity [8] | Activity [9] | Activity [10] | viability at 48 h, 10 µM [11] | viability at 24 h, 50 µM [12] | Activity [13] | permeability [14] | Activity [15] | viability at 48 h, 50 µM [16] | IC50 [17] | viability at 24 h, 10 µM [18] |
| --- | --- | --- | --- | --- | --- | --- | --- | --- | --- | --- | --- | --- | --- | --- | --- | --- | --- | --- |
| CS(=O)(=O)[O-].O=C(Cc1cc(O)c(O)c(O)c1)NCCCCCC[P+](c1ccccc1)(c1ccccc1)c1ccccc1 | 469 mV | Non-Toxic | inactive | Tde | inactive | Active | 23.5 µM | Active | 95.3% | inactive | 106% | 93.7% | 58 mV | 65.4% | inactive | 87.7% | 9.5 µM | 90.6% |
| O=C(O)c1cc(O)c(O)c(O)c1 [GALLIC ACID] | 559 mV |  |  |  |  |  | 9.9 µM |  |  |  |  |  | 120 mV |  |  |  | 7.8 µM |  |
| O=C(NCCCCCCCCCC[P+](c1ccccc1)(c1ccccc1)c1ccccc1)c1cc(O)c(O)c(O)c1 | 725 mV |  | inactive |  | inactive | Active | 10.2 µM | inactive | > 80% | 70.8 - 83.3% | 108% | 101% | 114 mV |  | 70.8 - 83.3% | 108% | 7.4 µM | 107% |
| CS(=O)(=O)[O-].O=C(Cc1cc(O)c(O)c(O)c1)NCCCCCCCCCC[P+](c1ccccc1)(c1ccccc1)c1ccccc1 | 594 mV | Non-Toxic | inactive | Tde | inactive | Active | 20.7 µM | 66.5 - 70.2% | > 80% | 70.8 - 83.3% | 102% | 95.3% | 11 mV | 27.7% | 70.8 - 83.3% | 93.6% | 7.6 µM | 95.2% |
| CS(=O)(=O)[O-].O=C(CCc1ccc(O)c(O)c1)NCCCCCC[P+](c1ccccc1)(c1ccccc1)c1ccccc1 | 132 mV | Non-Toxic | inactive | Tde | inactive | 83.1% | 55.6 µM | Active | > 80% |  | 104% | 97.5% | 132 mV | 24.6% | Active | 99.3% | 28.3 µM | 93.5% |
| CS(=O)(=O)[O-].O=C(/C=C/c1cc(O)c(O)c(O)c1)NCCCCCCCCCC[P+](c1ccccc1)(c1ccccc1)c1ccccc1 | 741 mV |  | inactive |  | inactive | Active | 13.7 µM | inactive | > 80% | 70.8 - 83.3% | 105% | 101% | 57 mV |  | 70.8 - 83.3% | 108% | 7.5 µM | 99% |
| Cc1c(C)c2c(c(C)c1O)CCC(C)(C(=O)O)O2 (stereo unspecified) [TROLOX] | 113 mV |  |  |  |  |  | 31.1 µM |  |  |  | 5.99% | 3.62% | 113 mV |  |  | 5.99% | 24.5 µM | 3.62% |
| O=C(O)CCc1cc(O)c(O)c(O)c1 | 543 mV |  |  |  |  |  | 11.1 µM |  |  |  |  |  | 120 mV |  |  |  | 9.2 µM |  |
| O=C(O)Cc1ccc(O)c(O)c1 [3,4-DIHYDROXYPHENYLACETIC ACID] | 270 mV |  |  |  |  |  | 26.2 µM |  |  |  |  |  | 122 mV |  |  |  | 18 µM |  |
| CS(=O)(=O)[O-].O=C(CCc1cc(O)c(O)c(O)c1)NCCCCCCCCCC[P+](c1ccccc1)(c1ccccc1)c1ccccc1 | 537 mV | Non-Toxic | inactive | Tde | inactive | Active | 23.2 µM | 66.5 - 70.2% | > 80% | 70.8 - 83.3% | 106% | 96.3% | 12 mV | 33.1% | 70.8 - 83.3% | 108% | 11.9 µM | 92.8% |
| O=C(O)Cc1cc(O)c(O)c(O)c1 | 550 mV |  |  |  |  |  | 6.8 µM |  |  |  |  |  | 135 mV |  |  |  | 4.7 µM |  |
| CS(=O)(=O)[O-].O=C(CCc1cc(O)c(O)c(O)c1)NCCCCCC[P+](c1ccccc1)(c1ccccc1)c1ccccc1 | 547 mV | Non-Toxic | inactive | Tde | inactive | Active | 20.2 µM | Active | > 80% |  | 113% | 91.7% | 11 mV | 23.7% |  | 117% | 10.9 µM | 95.9% |
| CS(=O)(=O)[O-].O=C(/C=C/c1ccc(O)c(O)c1)NCCCCCC[P+](c1ccccc1)(c1ccccc1)c1ccccc1 | 164 mV |  | inactive |  | inactive |  | 29.5 µM | inactive | > 80% | 70.8 - 83.3% | 111% | 97.6% | 164 mV |  | 70.8 - 83.3% | 112% | 30.5 µM | 103% |
| O=C(O)/C=C/c1cc(O)c(O)c(O)c1 | 589 mV |  |  |  |  |  | 10.3 µM |  |  |  |  |  | 56 mV |  |  |  | 4.6 µM |  |
| CS(=O)(=O)[O-].O=C(Cc1ccc(O)c(O)c1)NCCCCCC[P+](c1ccccc1)(c1ccccc1)c1ccccc1 | 141 mV | Non-Toxic | 22.3% | Tde | inactive | 81.3% | 55 µM | Active | > 80% |  | 103% | 96.9% | 141 mV | 71.9% | inactive | 100% | 27.2 µM | 95.3% |
| O=C(O)CCc1ccc(O)c(O)c1 [DIHYDROCAFFEIC ACID] | 216 mV |  |  |  |  |  | 24.8 µM |  |  |  |  |  | 112 mV |  |  |  | 24 µM |  |
| O=C(O)/C=C/c1ccc(O)c(O)c1 [CAFFEIC ACID] | 168 mV |  |  |  |  |  | 28.5 µM |  |  |  |  |  | 168 mV |  |  |  | 20.5 µM |  |
| O=C(NCCCCCC[P+](c1ccccc1)(c1ccccc1)c1ccccc1)c1ccc(O)c(O)c1 | 219 mV |  | inactive |  | inactive |  | 31 µM | inactive | > 80% | inactive | 97.4% | 96.9% | 219 mV |  |  | 90.3% | 20.7 µM | 102% |
| O=C(NCCCCCC[P+](c1ccccc1)(c1ccccc1)c1ccccc1)c1cc(O)c(O)c(O)c1.[Br-] | 559 mV |  | inactive |  | inactive | Active | 14 µM | inactive | > 80% | 70.8 - 83.3% | 89.4% | 98.2% | 115 mV |  | 70.8 - 83.3% | 88.5% | 6.5 µM | 100% |
| O=C(O)c1ccc(O)c(O)c1 [PROTOCATECHUIC ACID] | 234 mV |  |  |  |  |  | 42 µM |  |  |  |  |  | 234 mV |  |  |  | 26.1 µM |  |
